# pEC50, pIC50: −log10 of the molar value. Read-outs that look alike come from different tables or passages of the source.
# What was measured:
# [1] = test system: RF strain of HIV-1 in CEM-SS cells; assay: HIV-1 cell protection assay (XTT dye reduction); format: cell-based
# Experimental: HIV-1 Cell Protection Assay
# The antiviral activities of potential modulator compounds (test compounds) were determined in HIV-1 cell protection assays using the RF strain of HIV-1, CEM-SS cells, and the XTT dye reduction method (Weislow, O, S. et al., J. Natl. Cancer Inst 81: 577-586 (1989)). Subject cells were infected with HIV-1 RF virus at an moi of to affect about a 90% kill (for example, an moi in the range of from about 0.025 to about 0.819) or mock infected with medium only and added at 2×10^4 cells per well, with the addition of approximately 200 μL of medium, into 96 well plates containing half-log dilutions of test compounds. Six days later, 50 μl of XTT solution (1 mg/ml XTT tetrazolium and 20 nM phenazine methosulfate) were added to the wells and the plates were reincubated for four hours. Viability, as determined by the amount of XTT formazan produced, was quantified spectrophotometrically by absorbance at 450 nm.
# Data from CPE assays were expressed as the percent of formazan produced in compound-treated cells compared to formazan produced in wells of uninfected, compound-free cells. The fifty percent effective concentration (EC50) was calculated as the concentration of compound that affected an increase in the percentage of formazan production in infected, compound-treated cells to 50% of that produced by uninfected, compound-free cells. The 50% cytotoxicity concentration (CC50) was calculated as the concentration of compound that decreased the percentage of formazan produced in uninfected, compound-treated cells to 50% of that produced in uninfected, compound-free cells. The therapeutic index was calculated by dividing the cytotoxicity (CC50) by the antiviral activity (EC50).
# [2] = target: T1, Full-length wild type HIV-1 integrase (SF1) (Human immunodeficiency virus type 1 group M subtype B, UniProt P04585); assay: Integrase strand-transfer scintillation proximity assay; format: biochemical
# T1 construct: made in house; host or cells: E. coli BL21 (DE3)
# Source text: Integrase Strand-Transfer Scintillation Proximity Assay
# Oligonucleotides: Oligonucleotide #1-5′-(biotin)[…]-3′ (SEQ ID NO: 1) and oligonucleotide #2-5′-[…]-3′ (SEQ ID NO: 2), were synthesized by TriLink BioTechnologies, Inc. (San Diego, Calif.). The annealed product represents preprocessed viral ds-DNA derived from the LTR U5 sequence of the viral genome. A ds-DNA control to test for non-specific interactions was made using a 3′ di-deoxy derivative of oligonucleotide #1 annealed to oligonucleotide #2. The CA overhang at the 5′ end of the non-biotinylated strand of the ds-DNA was created artificially by using a complimentary DNA oligonucleotide shortened by 2 base pairs. This configuration eliminates the requisite 3′ processing step of the integrase enzyme prior to the strand-transfer mechanism.
# Host ds-DNA was prepared as an unlabeled and [^3H]-thymidine labeled product from annealed oligonucleotide #3-5-[…]-3′ (SEQ ID NO: 3), and oligonucleotide #4-1-5′-[…]-3′ (SEQ ID NO: 4), both synthesized by TriLink BioTechnologies, Inc. (San Diego, Calif.). The annealed product had overhanging 3′ ends of poly(dA). Host DNA was custom radiolabeled by PerkinElmer Life Sciences Inc. (Boston, Mass.) using an enzymatic method with a 12/1 ratio of [methyl-^3H]dTTP/cold ds-DNA to yield 5′-blunt end ds-DNA with a specific activity of >900 Ci/mmol. The radiolabeled product was purified using a NENSORB cartridge and stored in stabilized aqueous solution (PerkinElmer). The final radiolabeled product had six [^3H]-thymidine nucleotides at both 5′ ends of the host ds-DNA.
# Reagents: Streptavidin-coated polyvinyltoluene (PVT) SPA beads were purchased from Amersham Biosciences (Piscataway, N.J.). Cesium chloride was purchased from Shelton Scientific, Inc. (Shelton, Conn.). White, polystyrene, flat-bottom, non-binding surface, 96-well plates were purchased from Corning. All other buffer components were purchased from Sigma (St. Louis, Mo.) unless otherwise indicated.
# Enzyme Construction Full-length wild type HIV-1 integrase (SF1) sequence (amino acids 1-289) was constructed in a pET24a vector (Novagen, Madison, Wis.). The construct was confirmed through DNA sequencing.
# Enzyme Purification Full length wild-type HIV Integrase was expressed in E. coli BL21 (DE3) cells and induced with 1 mM isopropyl-1 thio-β-D-galactopyranoside (IPTG) when cells reached an optical density between 0.8-1.0 at 600 nm. Cells were lysed by microfluidation in 50 mM HEPES pH 7.0, 75 mM NaCl, 5 mM DTT, 1 mM 4-(2-Aminoethyl)benzenesulfonylfluoride HCl (AEBSF). Lysate was then centrifuged 20 minutes at 11 k rpm in GSA rotor in Sorvall RC-5B at 4° C. Supernant was discarded and pellet resuspended in 50 mM HEPES pH 7.0, 750 mM NaCl, 5 mM DTT, 1 mM AEBSF and homogenized in a 40 mL Dounce homogenizer for 20 minutes on ice. Homogenate was then centrifuged 20 minutes at 11 k rpm in SS34 rotor in Sorvall RC-5B at 4° C. Supernant was discarded and pellet resuspended in 50 mM HEPES pH 7.0, 750 mM NaCl, 25 mM CHAPS, 5 mM DTT, 1 mM AEBSF. Preparation was then centrifuged 20 minutes at 11 k rpm in SS34 rotor in Sorvall RC-5B at 4° C.
# Supernant was then diluted 1:1 with 50 mM HEPES pH 7.0, 25 mM CHAPS, 1 mM DTT, 1 mM AEBSF and loaded onto a Q-Sepharose column pre-equilibrated with 50 mM HEPES, pH 7.0, 375 mM NaCl, 25 mM CHAPS, 1 mM DTT, 1 mM AEBSF. The flow through peak was collected and NaCl diluted to 0.1 M with 50 mM HEPES pH 7.0, 25 mM CHAPS, 1 mM DTT, 0.5 mM AEBSF and loaded onto a SP-Sepharose column pre-equilibrated with 50 mM HEPES pH 7.0, 100 mM NaCl, 25 mM CHAPS, 1 mM DTT, 0.5 mM AEBSF. After washing the column with the equilibration buffer, a 100 to 400 mM NaCl gradient was run. The eluted integrase was concentrated and run on a S-300 gel diffusion column using 50 mM HEPES pH 7.0, 500 mM NaCl, 25 mM CHAPS, 1 mM DTT, 0.5 mM AEBSF. The peak from this column was concentrated to 0.76 mg/mL and stored at −70° C. and later used for strand transfer assays. […]
# [3] = Human immunodeficiency virus 1, CEM-SS, 144 h
# [4] = integrase strand-transfer SPA, read-out: IC50
# [5] = Human immunodeficiency virus 1, 144 h, HIV-1 RF, CEM-SS cells, XTT, six days, read-out: EC50
SMILES,"pEC50 [1, 3]","pIC50 [2, 4]","pEC50 [1, 5]",pIC50 [2]
"CONC(=O)c1cc2c(C(=O)NCCCN3CCCC3=O)cn(Cc3ccc(F)cc3)c2cn1 [Example 9, 1-(4-fluorobenzyl)-N~5~- methoxy-N~3~-[3-(2-oxopyrrolidin-1-yl)propyl]-1H-pyrrolo[2,3-c]pyridine-3,5-dicarboxamide]",7.38,6.57,–,–
"CONC(=O)c1cc2c(C(=O)N3CCC(N(C)C)C3)cn(Cc3ccc(F)cc3)c2cn1 (stereo not drawn) [Example 12, 3-{[3-(dimethylamino)pyrrolidin-1-yl]carbonyl)-1-(4-fluorobenzyl)-N-methoxy-1H-pyrrolo[2,3-c]pyridine-5-carboxamide]",6.85,6.10,–,–
"CONC(=O)c1cc2c(C(=O)NCC(F)F)cn(Cc3ccc(F)cc3)c2cn1 [Example 48, N3-(2,2-difluoroethyl)-1-(4-fluorobenzyl)-N5-methoxy-1H-pyrrolo[2,3-c]pyridine-3,5-dicarboxamide]",7.54,6.29,–,–
"O=C(NO)c1cc2c(NS(=O)(=O)Cc3ccccc3)cn(Cc3ccc(F)cc3)c2cn1 [Example 19, 3-[(benzylsulfonyl)amino]-1-(4-fluorobenzyl)-N-hydroxy-1H-pyrrolo[2,3-c]pyridine-5-carboxamide]",–,6.98,7.74,–
"CN(O)C(=O)c1cc2c(C(=O)NC(CC(=O)NC3CC3)C3CC3)cn(Cc3ccc(F)cc3)c2cn1 (stereo not drawn) [Example 18, N~3~-[1-cyclopropyl-3-(cyclopropylamino)-3-oxopropyl]-1-(4-fluorobenzyl)-N~5~- hydroxy-N~5~-methyl-1H-pyrrolo[2,3-c]pyridine-3,5-dicarboxamide]",6.34,6.64,–,–
"CONC(=O)c1cc2c(C(=O)N3CCC[C@H]3CO)cn(Cc3ccc(F)cc3)c2cn1 [Example 10, 1-(4-fluorobenzyl)-3-{[(2S)-2-(hydroxymethyl)pyrrolidin-1-yl]carbonyl}-N-methoxy-1H-pyrrolo[2,3-c]pyridine-5-carboxamide]",7.40,5.94,–,–
"O=C(NO)c1cc2c(S(=O)(=O)NCCN3CCOCC3)cn(Cc3ccc(F)cc3F)c2cn1 [Example 37, 1-(2,4-difluorobenzyl)-N-hydroxy-3-{[(2-morpholin-4-ylethyl)amino]sulfonyl}-1H-pyrrolo[2,3-c]pyridine-5-carboxamide]",–,6.79,6.31,–
"CC(C)NC(=O)c1cn(Cc2ccc(F)cc2)c2cnc(C(=O)N(C)O)cc12 [Example 44, 1-(4-fluorobenzyl)-N5-hydroxy-N3-isopropyl-N5-methyl-1H-pyrrolo[2,3-c]pyridine-3,5-dicarboxamide]",7.15,6.69,–,–
"CS(=O)(=O)Nc1cn(Cc2ccc(F)cc2)c2cnc(C(=O)NO)cc12 [Example 5, 1-(4-fluorobenzyl)-N-hydroxy-3-[(methylsulfonyl)amino]-1H-pyrrolo[2,3-c]pyridine-5-carboxamide]",–,7.25,8.28,–
"O=C(CC(NC(=O)c1cn(Cc2ccc(F)cc2)c2cnc(C(=O)NO)cc12)C1CC1)NC1CC1 (stereo not drawn) [Example 24, N~3~-[1-cyclopropyl-3-(cyclopropylamino)-3-oxopropyl]-1-(4-fluorobenzyl)-N~5~- hydroxy-1H-pyrrolo[2,3-c]pyridine-3,5-dicarboxamide]",6.42,7.80,–,–
"CN(O)C(=O)c1cc2c(C(=O)N3CCC[C@H]3CO)cn(Cc3ccc(F)cc3)c2cn1 [Example 22, 1-(4-fluorobenzyl)-N-hydroxy-3-{[(2S)-2-(hydroxymethyl)pyrrolidin-1-yl]carbonyl}-N-methyl-1H-pyrrolo[2,3-c]pyridine-5-carboxamide]",6.77,6.49,–,–
"O=C(NO)c1cc2c(NS(=O)(=O)c3ccccc3)cn(Cc3ccc(F)cc3)c2cn1 [Example 3, 1-(4-fluorobenzyl)-N-hydroxy-3-[(phenylsulfonyl)amino]-1H-pyrrolo[2,3-c]pyridine-5-carboxamide]",–,–,7.68,7.39
"CN(C)C1CCN(C(=O)c2cn(Cc3ccc(F)cc3)c3cnc(C(=O)NO)cc23)C1 (stereo not drawn) [Example 26, 3-{[3-(dimethylamino)pyrrolidin-1-yl]carbonyl}-1-(4-fluorobenzyl)-N-hydroxy-1H-pyrrolo[2,3-c]pyridine-5-carboxamide]",7.05,6.80,–,–
"O=C(NO)c1cc2c(NS(=O)(=O)c3ccc4c(c3)CNCC4)cn(Cc3ccc(F)cc3)c2cn1 [Example 20, 1-(4-fluorobenzyl)-N-hydroxy-3-[(1,2,3,4-tetrahydroisoquinolin-7-ylsulfonyl)amino]-1H-pyrrolo[2,3-c]pyridine-5-carboxamide]",–,6.43,6.24,–
"CN(O)C(=O)c1cc2c(NS(=O)(=O)c3ccccc3)cn(Cc3ccc(F)cc3)c2cn1 [Example 4, 1-(4-fluorobenzyl)-N-hydroxy-N-methyl-3-[(phenylsulfonyl)amino]-1H-pyrrolo[2,3-c]pyridine-5-carboxamide]",–,6.44,7.38,–
"CN(O)C(=O)c1cc2c(S(=O)(=O)N(C)C)cn(Cc3ccc(F)cc3)c2cn1 [Example 35, 3-[(dimethylamino)sulfonyl]-1-(4-fluorobenzyl)-N-hydroxy-N-methyl-1H-pyrrolo[2,3-c]pyridine-5-carboxamide]",–,5.99,6.43,–
"CONC(=O)c1cc2c(C(=O)NCc3cnn(C)c3C)cn(Cc3ccc(F)cc3)c2cn1 [Example 11, N~3~-[(1,5-dimethyl-1H-pyrazol-4-yl)methyl]-1-(4-fluorobenzyl)-N~5~- methoxy-1H-pyrrolo[2,3-c]pyridine-3,5-dicarboxamide]",7.17,6.28,–,–
"CONC(=O)c1cc2c(C(=O)NCCN3CCOCC3)cn(Cc3ccc(F)cc3)c2cn1 [Example 7, 1-(4-fluorobenzyl)-N~5~- methoxy-N~3~-(2-morpholin-4-ylethyl)-1H-pyrrolo[2,3-c]pyridine-3,5-dicarboxamide]",7.21,6.26,–,–

# Source: patent publication US20090170846A1, “INHIBITORS OF THE HIV INTEGRASE ENZYME” (Pfizer Inc, priority 2005, published 2009)
